Data from patent US20100234358A1, “NERAMEXANE FOR THE TREATMENT OF NYSTAGMUS” (MERZ PHARMA GMBH & CO. KGAA, priority 2007, published 2010).

Tests used:
[1] = system: acquired pendular nystagmus due to multiple sclerosis; settings: in vivo; cited from earlier work
[2] = system: congenital idiopathic and acquired nystagmus; settings: human, in vivo; cited from earlier work
[3] = system: congenital, idiopathic nystagmus (subgroup: acquired nystagmus in MS patients); experiment: Double blind placebo controlled pilot trial of neramexane for treatment of nystagmus; type: in vivo, human; settings: as compared to the placebo group, Neramexane mesylate up to 75 mg/d, 7 weeks
Description: The objective of this pilot project is to conduct a clinical trial to assess the efficacy of neramexane as a treatment for nystagmus.
The primary objective of this study is to investigate the safety and efficacy of Neramexane mesylate at daily doses of up to 75 mg in the treatment of congenital, idiopathic nystagmus in comparison to placebo. In addition, a subgroup of up to 20 MS patients suffering from acquired nystagmus are included and analyzed in an exploratory manner. In both patient groups, effects of treatment is assessed in comparison with placebo using a two-period cross-over design (two treatment periods of 7 weeks each, separated by a wash-out phase.
The study is designed as a randomized, double-blind placebo-controlled, pilot study using a two-period cross-over design. Suitable patients are randomly assigned to one of the two treatment sequences of the cross-over trial (sequence A-B or B-A), i.e. double-blind treatment with Neramexane (A) and matching placebo tablets (B).
Patients with congenital nystagmus (no pathology other than nystagmus; primary analysis population) or acquired nystagmus subsequent to MS (exploratory analysis only) • male or female outpatients aged between 18 and 80 years (inclusive) at screening; • patients with a metric visual acuity (VA) of 6/9 or lower 6/9); • for females of childbearing potential (last menses less than one year prior to enrollment): negative pregnancy test at baseline; either surgically sterile or use of a medically accepted method of contraception during the entire duration of the study; • congenital idiopathic nystagmus patients: uneventful gross neurological examination; • MS patients: diagnosis ‘multiple sclerosis’ as confirmed on the basis of McDonald criteria; • normal results of electroretinography (ERG) and visually evoked potential (VEP) testing; historical results may be accepted (period of acceptability to be defined) • patients having given written informed consent; • patient expected and willing to comply with the scheduled visits, dosing scheme (in particular placebo), and other requirements of the study; • results of normal physical examination, electrocardiogram (ECG), and safety laboratory at screening, or abnormal findings which are judged not clinically significant by the investigator; • Refraction prior to enrolment and, if required, prescription and receipt of new glasses or contact lenses prior to baseline visual acuity measurement
Neramexane mesylate 25 mg modified release tablets and matching placebo tablets are administered as film coated tablets. […]
Visual acuity (VA) is the standard by which the outcomes of drug therapy in nystagmus are measured in the framework of clinical trials. […]

[4] = system: N-methyl-D-aspartate (NMDA) receptors; settings: cited from earlier work

| Compound | activity in acquired pendular nystagmus due to multiple sclerosis [1] | effectiveness in the treatment of congenital idiopathic and acquired nystagmus [2] | secondary outcome: expanded nystagmus acuity function [3] | secondary outcome: nystagmus intensity [3] | secondary outcome: reading ability [3] | primary outcomes, such as visual acuity ([3]; two-period cross-over) | NMDA-receptor affinity / mode of antagonism [4] |
| --- | --- | --- | --- | --- | --- | --- | --- |
| CC12CC3CC(C)(C1)CC(N)(C3)C2 [memantine] | demonstrated activity | may be effective | – | – | – | – | – |
| CC1(C)CC(C)(C)CC(C)(N)C1 [neramexane, 1-amino-1,3,3,5,5-pentamethylcyclohexane] | – | – | improvement | improvement | improvement | improvement | low to moderate-affinity, non-competitive NMDA-receptor antagonist |
